Reference: patent US7662842B2, “Thiazolidinone amides, thiazolidine carboxylic acid amides, and serine amides, including polyamine conjugates thereof, as selective anti-cancer agents” (Ohio State Univesity Research Foundation, priority 2003, dated 2010)

Experiments:
SKMEL-188 melanoma cells = assay: Sulforhodamine B assay in melanoma cells, SKMEL-188; type: cell-based; settings: SK-MEL-188, 48 h, SRB assay, 48 h incubation; melanoma cell line
Description: (§1) SKMEL-188 cells were cultured in Ham's F10 medium (Gibco Invitrogen, Inc., Grand Island, N.Y.) plus 5% fetal bovine serum (Cellgro Mediatech, Inc., Herndon, Va.) and 1% antibiotic/antimycotic mixture (Sigma-Aldrich, Inc., St. Louis, Mo.). WM-164 cells (gift of Dr. Meenhard Herlyn, Wistar Inst., Philadelphia, Pa.) and human dermal fibroblasts (Cascade Biologics, Inc., Portland, Oreg.) were cultured in DMEM medium (Cellgro Mediatech, Inc.) supplemented with 5% fetal bovine serum, 1% antibiotic.antimycotic mixture and bovine insulin ([…], Sigma-Aldrich, Inc.). Human dermal fibroblasts were used as a control to examine the effects of compounds on stromal environment. Thus, the effect of the various compounds on melanoma cells versus fibroblasts would document their potential selectivity.
(§2) Sulforhodamine B Assay: Cells were seeded into 96-well plates at 5000 cells/well. After 12 hours, media were changed and serial dilutions of compounds were added. Cells were incubated with each compound for 48 hours. Fresh media containing the test compound were changed ever 24 hours. Thereafter, total cell protein corresponding to cell numbers (both viable and non-viable cells) were measured using the sulforhodamine B (SRB) assay according to manufacturer's protocol (Sigma-Aldrich, Inc.) (Rubinstein et al., “Comparison of in vitro Anticancer Drug-screening Data Generated with a Tetrazolium Assay Versus a Protein Assay Against a Diverse Panel of Human Tumor Cell Lines,” J. Natl. Cancer Inst. 82:1113-1118 (1990); Dothager et al., “Synthesis and Identification of Small Molecules that Potently Induce Apoptosis in Melanoma Cells Through GI Cell Cycle Arrest,” J. Am. Chem. Soc. 127:8686-8696 (2005), each of which is hereby incorporated by reference in its entirety). Briefly, cells were fixed with trichloracetic acid, washed and incubated with sulforhodamine B for 30 minutes. After another wash, dye incorporated into the cells was solubilized and measured using a plate reader at 565 nm.
(§3) Statistical Analysis: Data is presented as mean±SEM (n=6-8). […] Statistical analyses were performed with Student's t-test (*p<0.05; **p<0.005).
(§4) DTIC and Taxol were assayed in the same way for comparison and served as internal quality controls in the different batches of assay. For comparison, the activities of 5R and 5S were measured.

WM-164 cells = assay: Sulforhodamine B assay in melanoma cells, WM-164; type: cell-based; settings: Homo sapiens, WM164, read-out: IC50 WM-164; SRB assay, 48 h incubation; melanoma cell line
Description: as §1, §2, §3, §4

human dermal fibroblasts = assay: Sulforhodamine B assay, fibroblast control cells; type: cell-based; settings: Homo sapiens, Fibroblast, 48 h, SRB assay, 48 h incubation
Description: as §1, §2, §3, §4

LNCaP cells = assay: DNA fragmentation by agarose gel electrophoresis; type: cell-based, human; settings: treatment for 24 to […], 3-50 μM, FIGS. 4A-B
Description: In FIG. 4B, the dose and exposure time are indicated for compound 5 as follows: lane 1, 100 bp DNA marker; lane 2, 5 μM for 24 h; lane 3, 5 μM for 48 h; lane 4, 5 μM for 72 h; lane 5, 5 μM for 96 h; lane 6, 3 μM for 96 h; lane 7, 8 μM for 48 h; and lane 8, 8 μM for 72 h.

IC50 (SKMEL-188 melanoma cells): 39.6 µM
IC50 (WM-164 cells): > 50 µM
SMILES: CCCCCCCCCCCCCCCCCCNC(=O)[C@@H]1CSC(c2ccccc2)N1.Cl (mixture of isomers) [Compound 5, (2RS, 4R)-2-Phenylthiazolidine-4-carboxylic acid octadecylamide Hydrochloride]
IC50 (human dermal fibroblasts): > 50 µM
DNA fragmentation (apoptosis) in LNCaP cells (LNCaP cells): induce cell apoptosis
